# Measurements: patent US12662491B2 (Redona Therapeutics, Inc., priority 2020, dated 2026)
# Read-outs that look alike come from different tables or passages of the source.
# Target: T1, Zcchc11 enzyme (Homo sapiens, UniProt Q5TAX3)
# T1 construct: made in house; host or cells: HEK293 cells (Zcchc11); E. coli Rosetta II (LIN28A)
# T1 sequence (Q5TAX3 212-1420): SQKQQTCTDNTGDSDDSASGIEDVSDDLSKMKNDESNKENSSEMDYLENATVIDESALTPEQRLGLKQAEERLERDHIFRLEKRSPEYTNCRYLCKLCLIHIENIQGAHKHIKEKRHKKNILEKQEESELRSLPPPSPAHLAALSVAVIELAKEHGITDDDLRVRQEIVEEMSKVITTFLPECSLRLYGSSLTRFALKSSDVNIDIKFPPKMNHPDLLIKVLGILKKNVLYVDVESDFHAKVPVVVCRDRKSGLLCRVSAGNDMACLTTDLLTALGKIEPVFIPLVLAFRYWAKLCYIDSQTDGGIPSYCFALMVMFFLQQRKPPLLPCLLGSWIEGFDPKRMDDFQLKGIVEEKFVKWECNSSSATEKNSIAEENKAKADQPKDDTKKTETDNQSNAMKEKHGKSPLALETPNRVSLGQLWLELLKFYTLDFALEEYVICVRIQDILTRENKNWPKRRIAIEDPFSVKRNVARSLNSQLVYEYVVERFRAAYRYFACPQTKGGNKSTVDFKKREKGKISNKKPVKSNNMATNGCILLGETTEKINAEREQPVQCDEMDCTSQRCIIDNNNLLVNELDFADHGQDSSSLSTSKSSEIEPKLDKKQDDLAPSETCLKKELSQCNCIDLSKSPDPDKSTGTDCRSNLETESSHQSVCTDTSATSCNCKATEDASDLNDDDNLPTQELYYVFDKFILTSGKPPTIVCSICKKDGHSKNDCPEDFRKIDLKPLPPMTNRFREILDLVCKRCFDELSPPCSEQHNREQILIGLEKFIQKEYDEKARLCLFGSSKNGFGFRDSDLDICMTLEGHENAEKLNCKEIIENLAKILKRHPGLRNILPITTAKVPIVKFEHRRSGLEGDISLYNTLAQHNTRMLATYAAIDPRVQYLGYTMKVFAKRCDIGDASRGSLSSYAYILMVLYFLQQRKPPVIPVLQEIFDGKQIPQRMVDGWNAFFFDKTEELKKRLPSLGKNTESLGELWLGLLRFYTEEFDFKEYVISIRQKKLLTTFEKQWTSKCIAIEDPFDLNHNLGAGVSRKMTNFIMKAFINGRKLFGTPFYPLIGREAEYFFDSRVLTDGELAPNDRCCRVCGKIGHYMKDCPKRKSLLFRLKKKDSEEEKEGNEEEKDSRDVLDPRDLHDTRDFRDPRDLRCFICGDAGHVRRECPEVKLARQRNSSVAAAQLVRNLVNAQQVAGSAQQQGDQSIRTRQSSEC
# Assay: TUTase assay (Zcchc11 assay, Lin28a-dependent polyuridylation of pre-let-7)
# Type: biochemical
# Conditions: read-out: Potency Lin28a-dep Z11 IC50
# Outline: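 Human Zcchc11 residues 212-1420 (HEK293-expressed, MBP tag cleaved, C-terminal FLAG) at 0.2 nM, with 10 nM full-length human LIN28A and 2 nM 5′-fluorescein pre-let-7, preincubated with compound 30 min at room temperature. Reaction started with 5 uM UTP plus 4 nM 3′-rhodamine A20 quench probe; fluorescein loss read kinetically, IC50 from initial rates.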
# [1] = Lin28a-dependent Zcchc11 (Z11) TUTase activity
# [2] = Lin28a-dependent Zcchc11 (Z11) TUTase assay
SMILES,IC50 [1] [nM],IC50 [2] [nM],other results
"N#Cc1cc2c(=O)c(C(=O)O)cn(-c3cnccn3)c2nc1N1CCC[C@@H]1COc1ccccc1 [Compound 283, (R)-6-cyano-4-oxo-7-(2-(phenoxy-methyl)pyrrolidin-1-yl)-1-(pyrazin-2-yl)-1,4-dihydro-1,8-naphthyridine-3-carboxylic acid]",10000 to 50000,–,–
"COCCOc1ccc(-n2cc(C(=O)O)c(=O)c3cc(F)c(N4CCC[C@@H]4COc4ncccc4C)cc32)cc1 [Compound 124, (R)-6-fluoro-1-(4-(2-methoxyethoxy)phenyl)-7-(2-(((3-methylpyridin-2-yl)oxy)methyl)pyrrolidin-1-yl)-4-oxo-1,4-dihydro-quinoline-3-carboxylic acid]",≤ 1000,–,–
"COCCN1CCC(n2cc(C(=O)O)c(=O)c3cc(Cl)c(N4CCC[C@@H]4COc4ncccc4Cl)cc32)CC1 [Example 463, (R)-6-chloro-7-(2-(((3-chloropyridin-2-yl)oxy)methyl)pyrrolidin-1-yl)-1-(1-(2-methoxy-ethyl)piperidin-4-yl)-4-oxo-1,4-dihydroquinoline-3-carboxylic acid]",–,1000 to 10000,–
"O=C(O)c1cn(-c2cc(F)cc(F)c2)c2cc(N3CCC[C@@H]3COc3ccccn3)c(F)cc2c1=O [Example 388, (R)-1-(3,5-difluorophenyl)-6-fluoro-4-oxo-7-(2-((pyridin-2-yloxy)methyl)pyrrolidin-1-yl)-1,4-dihydroquinoline-3-carboxylic acid]",–,1000 to 10000,–
"Cc1cccnc1OC[C@H]1CCCN1c1cc2c(cc1F)c(=O)c(C(=O)O)cn2C1CCOCC1 [Example 14, 6-fluoro-7-[(2R)-2-[[(3-methylpyridin-2-yl)oxy]methyl]pyrrolidin-1-yl]-1-(oxan-4-yl)-4-oxoquinoline-3-carboxylic acid]",–,–,"IC50 (LIN28A 10 nM, Zcchc11 0.2 nM, 5′-fluorescein pre-let-7 miRNA 2 nM, UTP 5 uM, room temperature, 30 minutes pre-incubation): ≤ 1000 nM"
"O=C(O)c1cn(-c2cnc(OCc3ccccc3)cn2)c2cc(N3CCC[C@@H]3COc3ncccc3Cl)c(Cl)cc2c1=O (racemic) [Compound 263, rac-(R)-1-(5-(benzyloxy)pyrazin-2-yl)-6-chloro-7-(2-(((3-chloropyridin-2-yl)oxy)methyl)pyrrolidin-1-yl)-4-oxo-1,4-dihydro-quinoline-3-carboxylic acid]",≤ 1000,–,–
"CN1CC2CN(c3ccc(-n4cc(C(=O)O)c(=O)c5cc(Cl)c(N6CCC[C@@H]6COc6ncccc6Cl)cc54)cn3)CC2C1 (stereo partly drawn) [Example 523, 6-chloro-7-((R)-2-(((3-chloropyridin-2-yl)oxy)methyl)pyrrolidin-1-yl)-1-(6-(5-methylhexahydro-pyrrolo[3,4-c]pyrrol-2(1H)-yl)pyridin-3-yl)-4-oxo-1,4-dihydroquinoline-3-carboxylic acid]",–,≤ 1000,–
"O=C(O)c1cn(-c2cnccn2)c2nc(N3CCC[C@@H]3COc3nnccc3Cl)c(Cl)cc2c1=O (racemic) [Compound 193, rac-(R)-6-chloro-7-(2-(((4-chloro-pyridazin-3-yl)oxy)methyl)pyrrolidin-1-yl)-4-oxo-1-(pyrazin-2-yl)-1,4-dihydro-1,8-naphthyridine-3-carboxylic acid]",1000 to 10000,–,–
"COCCN(C)C1CN(c2ccc(-n3cc(C(=O)O)c(=O)c4cc(C#N)c(N5CCC[C@@H]5COc5ncccc5Cl)cc43)cn2)C1 [Compound 218, 7-[(2R)-2-[[(3-chloropyridin-2-yl)oxy]methyl]pyrrolidin-1-yl]-6-cyano-1-(6-[3-[(2-methoxyethyl) (methyl)amino]azetidin-1-yl]pyridin-3-yl)-4-oxoquinoline-3-carboxylic acid]",≤ 1000,–,–
"O=C(O)c1cn(-c2ccc(O)c(F)c2)c2cc(N3CCC[C@@H]3COc3ccccn3)c(F)cc2c1=O [Example 385, (R)-6-fluoro-1-(3-fluoro-4-hydroxyphenyl)-4-oxo-7-(2-((pyridin-2-yloxy)methyl)pyrrolidin-1-yl)-1,4-dihydroquinoline-3-carboxylic acid]",–,≤ 1000,–
"O=C(O)c1cn(-c2ccc(F)c(O)c2)c2cc(N3CCC[C@@H]3COc3ccccn3)c(F)cc2c1=O [Example 534, (R)-6-fluoro-1-(4-fluoro-3-hydroxyphenyl)-4-oxo-7-(2-((pyridin-2-yloxy)methyl)pyrrolidin-1-yl)-1,4-dihydroquinoline-3-carboxylic acid]",–,≤ 1000,–
"CC1(n2cc(C(=O)O)c(=O)c3cc(F)c(N4CCC[C@@H]4COc4ccccn4)cc32)CC1 [Example 361, (R)-6-fluoro-1-(1-methylcyclo-propyl)-4-oxo-7-(2-((pyridin-2-yloxy)methyl)pyrrolidin-1-yl)-1,4-dihydroquinoline-3-carboxylic acid]",–,≤ 1000,–
"O=C(O)c1cn(-c2ncc[nH]2)c2cc(N3CCC[C@@H]3COc3ncccc3Cl)c(Cl)cc2c1=O [Example 560, (R)-6-chloro-7-(2-(((3-chloropyridin-2-yl)oxy)methyl)pyrrolidin-1-yl)-1-(1H-imidazol-2-yl)-4-oxo-1,4-dihydroquinoline-3-carboxylic acid]",–,≤ 1000,–

# Continued, in another order:
IC50 [1] [nM],IC50 [2] [nM],SMILES,other results
≤ 1000,–,"CN(C)C1CN(c2ccc(-n3cc(C(=O)O)c(=O)c4cc(Cl)c(N5CCC[C@@H]5COc5ncc6nc[nH]c6c5Cl)cc43)cn2)C1 [Compound 255, 6-chloro-7-[(2R)-2-[({7-chloro-1H-imidazo [4,5-c]pyridin-6-yl}oxy)methyl]pyrrolidin-1-yl]-1-{6-[3-(dimethyl-amino)azetidin-1-yl]pyridin-3-yl}-4-oxoquinoline-3-carboxylic acid]",–
–,≤ 1000,"COc1ccnc(OC[C@H]2C[C@H]3C[C@H]3N2c2cc3c(cc2Cl)c(=O)c(C(=O)O)cn3-c2ccc(N3CC(N(C)C)C3)nc2)c1C [Example 683, 6-chloro-1-(6-(3-(dimethylamino)azetidin-1-yl)pyridin-3-yl)-7-((1R,3R,5R)-3-(((4-methoxy-3-methylpyridin-2-yl)oxy)methyl)-2-azabicyclo[3.1.0]hexan-2-yl)-4-oxo-1,4-dihydroquinoline-3-carboxylic acid]",–
≤ 1000,–,"COc1ccc(Cl)c(OC[C@H]2CC(c3ccc(O)nc3)CN2c2cc3c(cc2F)c(=O)c(C(=O)O)cn3-c2ccc(N3CC(N(C)C)C3)nc2)n1 (mixture of isomers) [Compound 224, Formic acid compound with rac-7-((2R)-2-(((3-chloro-6-methoxy-pyridin-2-yl)oxy)methyl)-4-(6-hydroxy-pyridin-3-yl)pyrrolidin-1-yl)-1-(6-(3-(dimethyl-amino)azetidin-1-yl)pyridin-3-yl)-6-fluoro-4-oxo-1,4-dihydro-quinoline-3-carboxylic acid (1:1)]",–
≤ 1000,–,"Cc1ccc(Cl)c(OC[C@H]2CCCN2c2cc3c(cc2Cl)c(=O)c(C(=O)O)cn3-c2ccc(N3CC(N(C)C)C3)nc2)n1 (racemic) [Compound 187, rac-(R)-6-chloro-7-(2-(((3-chloro-6-methylpyridin-2-yl)oxy)methyl)pyrrolidin-1-yl)-1-(6-(3-(dimethyl-amino)azetidin-1-yl)pyridin-3-yl)-4-oxo-1,4-dihydro-quinoline-3-carboxylic acid]",–
–,≤ 1000,"CN(C)[C@H]1CCN(c2ccc(-n3cc(C(=O)O)c(=O)c4cc(Cl)c(N5CCC[C@@H]5COc5ncccc5Cl)cc43)cn2)C1 [Example 521, 6-chloro-7-((R)-2-(((3-chloropyridin-2-yl)oxy)methyl)pyrrolidin-1-yl)-1-(6-((S)-3-(dimethylamino)pyrrolidin-1-yl)pyridin-3-yl)-4-oxo-1,4-dihydroquinoline-3-carboxylic acid]",–
–,≤ 1000,"CN(C)C1CN(c2ccc(-n3cc(C(=O)O)c(=O)c4cc(F)c(N5CCC[C@@H]5COc5ncccc5Cl)cc43)cn2)C1 [Example 510, (R)-7-(2-(((3-chloropyridin-2-yl)oxy)methyl)pyrrolidin-1-yl)-1-(6-(3-(dimethylamino)azetidin-1-yl)pyridin-3-yl)-6-fluoro-4-oxo-1,4-dihydroquinoline-3-carboxylic acid]",–
